Assay results as given in publication PMC11943723, “Synthesis and Biological Activity of Glycosyl Thiazolyl Disulfides Based on Thiacarpine, an Analogue of the Cytotoxic Alkaloid Polycarpine from the Ascidian Polycarpa aurata” (Marine Drugs, 2025).
In brackets after ≈: the same amount, converted by molar mass. Where two headings read alike, the source gives them in different places.

Assays:
HeLa (cervical cancer) = assay: MTT cell viability assay, HeLa; format: cell-based, human; settings: 24 h incubation, read-out: Cytotoxicity EC50, HeLa
Description: (§1) Human erythrocytes were purchased from the blood transfusion station Vladivostok. Human breast cancer cell lines MCF-7^HTB−22, and MDA-MB-231^CRM-HTB−26, liver hepatocellular carcinoma Hep G2^HB−8065, prostate adenocarcinoma PC-3^CRL−1435, cervical adenocarcinoma HeLa^CRM-CCL−2, and normal bronchial epithelial cells BEAS-2B ^CRL−3588 were received from ATCC (Manassas, VA, USA).
(§2) DMEM medium (Biolot, Russia) with 1% penicillin/streptomycin and 10% fetal bovine serum (FBS) (Biolot, Russia) was used for cultivation of Hep G2, PC-3, HeLa, and Beas-2b. MEM medium (Biolot, Russia) with 1% penicillin/streptomycin sulfate (Biolot, Russia) and FBS (Biolot, Russia) to a final concentration of 10% for MCF-7 and MDA-MB-231 cells.
(§3) The effect of the studied compounds on the viability of human cancer and normal cells was determined using the MTT (3-[4,5-dimethylthiazol-2-yl]-2,5 diphenyl tetrazolium bromide) assay. Briefly, 6 × 10^3 cells per well were seeded into 96-well plates and incubated for 24 h for adhesion, followed by incubation for 24 h with different concentrations of the substances. After incubation, the medium containing the test substances was replaced with 100 µL of fresh medium. Then, 10 μL of MTT (Sigma-Aldrich, Madison, WI, USA) reagent (5 mg/mL MTT in PBS) was added into the cells and the plates for additional 4 h. Thereafter, 100 µL of SDS-HCl solution (1 g SDS/10 mL dH2O/17 µL 6N HCl) was added to each well and incubated for 18 h. The absorbance of the converted formazan dye was measured using a Multiskan FC microplate photometer (Thermo Scientific, Waltham, MA, USA) at a wavelength of 570 nm. All experiments were performed in triplicate. Cytotoxic activity was expressed as a percentage of the cell viability.

melanoma B-16 = settings: injected intraperitoneally; cited from earlier work
[1] = test system: MDA-MB-231 (triple-negative breast cancer); assay: MTT cell viability assay, MDA-MB-231; format: cell-based, human; settings: 24 h incubation, read-out: Cytotoxicity EC50, MDA-MB-231 (TNBC)
Description: as §1, §2, §3

[2] = MTT cell viability assay, BEAS-2B normal cells; format: cell-based; settings: human, BEAS-2B normal bronchial epithelial cells, 24 h incubation, read-out: Cytotoxicity EC50, BEAS 2B
Description: as §1, §2, §3

[3] = test system: Hep G2 (hepatocellular carcinoma); assay: MTT cell viability assay, Hep G2; format: cell-based; settings: Homo sapiens, HepG2, 24 h incubation, read-out: Cytotoxicity EC50, Hep G2
Description: as §1, §2, §3

[4] = test system: Escherichia coli (VKPM B-7935); assay: Antimicrobial activity, inhibition of microbial growth (optical density); format: cell-based; settings: Escherichia coli; 18 h, OD 620 nm; read-out: Inhibition of Microbial Growth MIC50, E. coli
Protocol: (§4) The antimicrobial activity of the compounds was determined against Gram-positive bacteria Staphylococcus aureus (ATCC 21027), Gram-negative bacteria Escherichia coli (VKPM B-7935), and yeast-like fungi Candida albicans (KMM 455) (all test strains were obtained from the Collection of Marine Microorganisms KMM PIBOC FEB RAS) in liquid nutrient media. Test cultures of S. aureus, E. coli, and C. albicans were grown in Petri dishes on a solid nutrient medium (Mueller–Hinton broth with the addition of agar—16.0 g/L) at 37 °C for 24 h. The antimicrobial activity of the compounds was determined by the change in optical density and expressed as the percentage of bacterial inhibition at different concentrations of substances added to the well of the microorganism suspension, compared to the control. The compounds were dissolved in dimethyl sulfoxide (DMSO) at a concentration of 10 mM and stored at −20 °C. Before the experiment, the solution of substances in DMSO was diluted with PBS at a concentration of 0.5–100.0 µM and added to the wells so that the concentration of DMSO in the culture medium was less than 1%. Antimicrobial activity was determined in 96-well microplates in a liquid Mueller–Hinton nutrient medium. For S. aureus, E. coli, and C. albicans, a bacterial suspension of 10^6 CFU in 1 mL of the media was used, 90 μL was added to each well of the microplates and then incubated in a thermostatted shaker at 37 °C for 18 h. Inhibition of microorganism growth was assessed by measuring the optical density at 620 nm using a microplate reader (Thermo Fisher Scientific, Waltham, MA, USA) after preliminary shaking of the plates for 10 min. All experiments were performed in triplicate. Gentamicin (S. aureus and E. coli) and nitrofungin (C. albicans) were used as positive controls, and 1% DMSO in PBS was used as a negative control.

[5] = test system: Candida albicans (KMM 455); assay: as above; format: cell-based; settings: Candida albicans, KMM455; 18 h, OD 620 nm; read-out: Inhibition of Microbial Growth MIC50, C. albicans
Protocol: as §4

[6] = test system: Staphylococcus aureus (ATCC 21027); assay: as above; format: cell-based; settings: Staphylococcus aureus, ATCC21027; 18 h, OD 620 nm; read-out: Inhibition of Microbial Growth MIC50, S. aureus
Protocol: as §4

LLC = settings: injected intraperitoneally; cited from earlier work
HeLa cells = assay: Wound scratch migration assay; format: cell-based; settings: Homo sapiens, 24 h, read-out: Migration inhibition effect
Protocol: To analyze the effect of the tested compounds on the migration of HeLa tumor cells, special migration inserts (Culture-insert 2 Well 24, ibiTreat, Martinsried, Germany) were used, which left a gap of 500 ± 50 μm (according to the manufacturer’s data) between the cells attached to the plate. HeLa cells at a concentration of 5 × 10^5 were added to each well of the migration insert for 24 h, the insert was removed, and the cells were washed twice with PBS to remove cell debris and floating cells and loaded with the fluorescent probe CFDA-SE (Lumiprobe, Moscow, Russia) at a concentration of 10 µM for 5 min. The cells were treated with different concentrations of the studied compounds for 0 and 24 h. Cells treated with culture medium alone were used as vehicle controls. Cell migration in the wound area was observed under a fluorescence microscope (MIB-2-FL, LOMO, St. Petersburg, Russia) with a 10× objective.

[7] = test system: Candida albicans (KMM 455); assay: Inhibition of biofilm formation (MTT); format: cell-based; settings: 24 h
Protocol: (§5) Biofilm formation was performed according to the method described by Walencka et al., with minor modifications. The compounds were dissolved in dimethyl sulfoxide (DMSO) at a concentration of 10 mM and stored at −20 °C. Before the experiment, the solution of substances in DMSO was diluted with PBS at a concentration of 0.5–100.0 µM and added to the wells so that the concentration of DMSO in the culture medium was less than 1%. Biofilm formation was assessed in 96-well microplates in a liquid Mueller–Hinton nutrient medium. For S. aureus, E. coli, and C. albicans, a bacterial suspension of 10^6 CFU in 1 mL of medium was used, 90 μL was added to each well of the microplates and then incubated in a thermostatted shaker at 37 °C for 24 h. After incubation, the suspension of planktonic microorganisms was removed from the plate and washed with PBS. Next, 100 μL of PBS and 10 μL of MTT (3-(4,5-dimethylthiazol-2-yl)-2,5-diphenyltetrazolium bromide, MTT reagent, Sigma) stock solution (5 mg/mL) were added to the wells and incubated for 3 h at 37 °C. After incubation, all the solution was removed from the wells, 100 μL of DMSO was added, and the plate was shaken for 10 min until all formazan crystals had dissolved. The absorption was measured using a plate reader (Thermo Fisher Scientific, Waltham, MA, USA) at a wavelength of 570 nm. The activity of the substances was assessed by the change in optical density compared with that of the control. All experiments were performed in triplicate. Gentamicin (S. aureus and E. coli) and nitrofungin (C. albicans) were used as positive controls, and 1% DMSO in PBS was used as a negative control.

[8] = test system: Staphylococcus aureus (ATCC 21027); assay: Inhibition of biofilm formation (MTT); format: cell-based; settings: 24 h
Protocol: as §5

Human erythrocytes = assay: Hemolytic activity (destruction of erythrocyte membranes); format: cell-based
Description: as §1

[9] = in vivo experiments; cited from earlier work

Compound	EC50 (HeLa (cervical cancer); Homo sapiens, HeLa, 24 h)	Inhibition of development of solid tumor melanoma B-16 (melanoma B-16)	EC50 ([1]; Homo sapiens, MDA-MB-231, 24 h)	EC50 at 24 h [2]	EC50 [3]	MIC50 [4]	MIC50 [5]	MIC50 [6]	Inhibition of development of solid tumor LLC (LLC)	EC50 (HeLa (cervical cancer))	inhibition at 10 µM (HeLa cells)	EC50 [1]	Inhibition of Biofilm Formation MIC50, C. albicans [7]	Inhibition of Biofilm Formation MIC50, S. aureus [8]	Hemolytic activity, erythrocytes (Human erythrocytes)	Acute toxicity in vivo [9]
COc1ccc(-c2nc(N)sc2SSc2sc(N)nc2-c2ccc(OC)cc2)cc1 [Compound 1a]	> 25 µM	effectively inhibited	21.4 µM	> 25 µM	> 25 µM	> 50 µM	38.2 ± 3.2 µM (≈ 18.1 µg/mL)	10.3 ± 1.1 µM (≈ 4.89 µg/mL)	effectively inhibited							
CC(=O)OC[C@H]1O[C@@H](SSc2sc(N)nc2-c2ccc(C)cc2)[C@H](OC(C)=O)[C@@H](OC(C)=O)[C@@H]1OC(C)=O [Compound 4e, 5-[(2,3,4,6-Tetra-O-acetyl-β-D-glucopyranosyl)disulfanyl]-2-amino-4-(p-tolyl)thiazole]	18.5 µM		15 µM	> 25 µM	> 25 µM	> 50 µM	17.7 ± 0.3 µM (≈ 10.3 µg/mL)	> 50 µM		18.5 µM	~43%	15 µM				
CC(=O)O[C@@H]1[C@@H](OC(C)=O)[C@H](SSc2sc(N)nc2-c2ccc(Br)cc2)OC[C@H]1OC(C)=O [Compound 4h, 5-[(2,3,4-Tri-O-acetyl-β-D-xylopyranosyl)disulfanyl]-2-amino-4-(4-bromophenyl)thiazole]	21.3 µM		21.1 µM	19.9 µM	24.6 µM	5.8 ± 0.4 µM (≈ 3.35 µg/mL)	4.3 ± 0.5 µM (≈ 2.48 µg/mL)	2.4 ± 0.2 µM (≈ 1.39 µg/mL)			~43%		7.11 µM	6.32 µM	> 25 µM	
COc1ccc(-c2nc(N)n(C)c2SSc2c(-c3ccc(OC)cc3)nc(N)n2C)cc1 [polycarpine]																acute toxicity
